Reference: US20030045480A1, “Method of treating hyperresorptive bone disorders” (priority 2001, published 2003)

Target: Src Kinase (p60c-Src) (Homo sapiens, UniProt P12931)
Experiment: General Assay Method for Src-Kinase (DELFIA time-resolved fluorometry, poly(Glu,Tyr) substrate)
Format: biochemical
Details: Src kinase 1:8000, 100 μM ATP, 15 min. at room temp; read-out: Activity (uMol. Delfia assay. IC50)
Description: The compounds 1-25 above were assayed for activity with respect to the Src protein tyrosine kinase by the fluorometric method described in Measurement of the Protein Tyrosine Kinase Activity of c-Src Using Time-Resolved Fluorometry of Europium Chelates, Braunwalder, A. F. et al., Analytical Biochemistry 238, 159-164 (1996), the disclosure of which is incorporated herein by reference, using the materials and procedures further specified below.
General Assay Method for Src-Kinase:
Costar 384 Clear, non-treated, high-binding plates
Sigma poly(Glu, Tyr) 4:1, Ave. MW 35,000
Sigma ATP (1.5 mM Stock Soln. in H2O)
MES Buffer: 30 mM MES (pH 6.8)
MBI Buffer: (MES+0.4 mg/ml BSA+0.003% IGEPAL)
Wallac Eu-labelled anti-phosphotyrosine Antibody (CR04-100)
Antibody Dilution Buffer: (MES+3%BSA)
DELFIA® Wash Solution (TTBS):
DELFIA Enhancement Solution
The plates were coated with 0.1 mg/ml poly(Glu, Tyr) in Coating Solution, 35 μl/well. It was let stand overnight at room temp. The plates were then washed 3 times with MES (100 μl/wash).
The reaction was stopped by aspiration, and then washed 3 times with MES (100 μl/wash). 20 μl 0.4 ng/μl of antibody in Antibody Dilution Buffer (final=8 ng Ab/well) was added and then incubated for 30 min. at RT. The antibody solution was removed by aspiration and then washed 3 times with 1X DELFIA Wash Solution. 20 μl DELFIA Enhancement Solution was added and the value was read.

Sequence of Src Kinase (p60c-Src) (P12931 whole entry): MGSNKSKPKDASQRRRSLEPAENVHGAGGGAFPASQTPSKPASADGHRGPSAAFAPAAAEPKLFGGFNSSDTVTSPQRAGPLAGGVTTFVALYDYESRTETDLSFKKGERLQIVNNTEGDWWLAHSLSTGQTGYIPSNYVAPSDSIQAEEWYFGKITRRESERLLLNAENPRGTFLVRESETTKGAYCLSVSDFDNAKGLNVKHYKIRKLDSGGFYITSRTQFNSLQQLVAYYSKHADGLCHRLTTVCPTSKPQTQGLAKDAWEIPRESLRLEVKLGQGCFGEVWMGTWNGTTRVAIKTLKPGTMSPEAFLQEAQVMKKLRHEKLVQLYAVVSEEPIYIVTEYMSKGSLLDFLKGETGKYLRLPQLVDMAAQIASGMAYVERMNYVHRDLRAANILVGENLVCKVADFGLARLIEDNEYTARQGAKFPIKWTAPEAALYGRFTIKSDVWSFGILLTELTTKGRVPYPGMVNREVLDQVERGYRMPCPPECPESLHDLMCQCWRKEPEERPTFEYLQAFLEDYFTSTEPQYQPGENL

SMILES	IC50 [µM]
CNCC(=O)N1CCCN(c2ccc(NC(=O)NCC3CCC(C(N)=O)CC3)cc2NC(=O)c2cc3ccccc3o2)CC1 (stereo not shown) [Example 17]	37
CC(C)C(NS(=O)(=O)c1cc(NC(=O)C2CCNCC2)ccc1N1CCC(Cc2ccccc2)CC1)C(N)=O (stereo not shown) [Example 23]	12
NC(=O)C1CCC(CNC(=O)Nc2ccc(N3CCCN(C(=O)C4CCCN4)CC3)c(NC(=O)c3cc4ccccc4o3)c2)CC1 (stereo not shown) [Example 18, 4-(Pyrrolidin-2-yl)carbonyl-1-[2-[(2-benzo-furanoyl)amino]-4-[[(4-aminocarbonyl)cyclohexyl-methyl-amino]carbonylamino]phenyl] homopiperazine]	19
NC(=O)C(CCc1ccccc1)NC(=O)Nc1ccc(N2CCN(C3CCCCC3)CC2)c(NC(=O)CCCc2ccccc2)c1 (stereo not shown) [Example 11, 4-Cyclohexyl-1-{[2-(4-phenylbutanoyl)amino]-4-[(1-aminocarbonyl-3-phenyl)propylamino]carbonylaminophenyl}piperazine]	11
NC(=O)C(CCc1ccccc1)NC(=O)Nc1ccc(N2CCCN(C(=O)C3CCNCC3)CC2)c(NC(=O)CCCc2ccccc2)c1 (stereo not shown) [Example 21]	22
NC(=O)C1CCC(CNS(=O)(=O)c2cc(NC(=O)C3CCCN3)ccc2N2CCC(Cc3ccccc3)CC2)CC1 (stereo not shown) [Example 25, N-[[(4-Aminocarbonyl)cyclohexylmethyl]amino]-[2-[(4-phenylmethyl)piperidin-1-yl]-5-[(2-pyrrolidinocarbonyl)-amino]phenyl]sulfonamide]	27.5
CC(C)C(NS(=O)(=O)c1cc(NC(=O)C2CCCN2)ccc1N1CCC(Cc2ccccc2)CC1)C(N)=O (stereo not shown) [Example 22, N-(1-Aminocarbonyl-2-methylpropyl)-2-[(4-phenylmethyl)piperidin-1-yl]-5-[(2-pyrrolidinocarbonyl)amino]phenylsulfonamide]	14
CC(C)(C)c1ccc(Oc2cccc(CN(C(=O)c3cccc(C(=N)N)c3)C(CC3CCCCC3)C(=O)NCC(N)=O)c2)cc1 (stereo not shown) [Example 2, 3-amidinobenzoyl-(3-(4-tert-butylphenoxy)benzyl)-cyclohexylylalanyl-glycyl-amide]	23
CC(C)C(NS(=O)(=O)c1cc(NC(=O)/C=C/c2ccccc2)ccc1N1CCN(C2CCCCC2)CC1)C(N)=O (stereo not shown) [Example 24, 1-[2-[N-(2-Aminocarbonyl-3-methylbutyl)sulfonamido]-5-[2-cinnamoylamino]]phenyl-4-cyclohexylpiperazine]	42
CC(C)(C)c1ccc(Oc2cccc(CN(C(=O)c3cccc(C(=N)N)c3)C(CCCNC(=N)N)C(=O)NCC(N)=O)c2)cc1 (stereo not shown) [Example 5, N-[3-Amidinobenzoyl]-N-[3-(4-tert-butylphenoxy)benzyl]-arginyl-glycyl-amide]	12.5
NC(=O)C(Cc1ccc2ccccc2c1)NC(=O)Nc1ccc(N2CCN(C3CCCCC3)CC2)c(NC(=O)/C=C/c2ccccc2)c1 (stereo not shown) [Example 9, 4-Cyclohexyl-1-{[2-cinnamoylamino]-4-[1-aminocarbonyl-2-(2-naphthyl)ethylamino]carbonylaminophenyl}piperazine]	17
NC(=O)C(CC1CCCCC1)NC(=O)Nc1ccc(N2CCCN(C(=O)C3CCNCC3)CC2)c(NC(=O)CCCc2ccccc2)c1 (stereo not shown) [Example 20]	28
NC(=O)C(CC1CCCCC1)NC(=O)Nc1ccc(N2CCCN(C(=O)C3CCNCC3)CC2)c(NC(=O)c2cc3ccccc3o2)c1 (stereo not shown) [Example 15, 4-(Piperidin-4-yl)carbonyl-1-{[2-(2-benzofuranoyl)amino]-4-[1-aminocarbonyl-2-cyclohexylethylamino]carbonylaminophenyl}homopiperazine]	6.5
NC(=O)C(Cc1ccc2ccccc2c1)NC(=O)Nc1ccc(N2CCCN(C(=O)C3CCNCC3)CC2)c(NC(=O)c2cc3ccccc3o2)c1 (stereo not shown) [Example 14, 4-(Piperidin-4-yl)carbonyl-1-{[2-(2-benzofuranoyl)amino]-4-[1-aminocarbonyl-2-(2-naphthyl)ethylamino]carbonylaminophenyl}homopiperazine]	2.75
NC(=O)C1CCC(CNC(=O)Nc2ccc(N3CCC(N4CCCCC4)CC3)c(NC(=O)c3cc4ccccc4o3)c2)CC1 (stereo not shown) [Example 19]	22
NC(=O)C(Cc1ccc2ccccc2c1)NC(=O)Nc1ccc(N2CCCN(C(=O)C3CCNCC3)CC2)c(NC(=O)CCCc2ccccc2)c1 (stereo not shown) [Example 13, 4-(Piperidin-4-yl)carbonyl-1-{[2-(4-phenylbutanoyl)amino]-4-[1-aminocarbonyl-2-(2-naphthyl)ethylamino]carbonylaminophenyl}homopiperazine]	13
N=C(N)c1ccc(C(=O)N(Cc2ccc(-c3ccccc3)cc2)C(Cc2ccc(-c3ccccc3)cc2)C(=O)NCC(N)=O)cc1 (stereo not shown) [Example 7, N-[4-Amidinobenzoyl]-N-[4-biphenylmethyl]-3-(4-biphenyl)alanyl-glycyl-amide]	13
CC(C)(C)c1ccc(Oc2cccc(CN(C(=O)c3cccc(C(=N)N)c3)C(Cc3cccc4ccccc34)C(=O)NCC(N)=O)c2)cc1 (stereo not shown) [Example 4, N-[3-Amidinobenzoyl]-N-[3-(4-tert-butylphenoxy)benzyl]-1-naphthylalanyl-glycyl-amide]	18
CC(C)(C)c1ccc(Oc2cccc(CN(C(=O)c3ccc(C(=N)N)cc3)C(Cc3c[nH]c4ccccc34)C(=O)NCC(N)=O)c2)cc1 (stereo not shown) [Example 6, 4-amidinobenzoyl-(3-(4-tert-butylphenoxy)phenoxybenzyl)-tryptanyl-glycyl-amide]	14
NC(=O)C(CC1CCCCC1)NC(=O)Nc1ccc(N2CCN(C3CCCCC3)CC2)c(NC(=O)/C=C/c2ccccc2)c1 (stereo not shown) [Example 12, 4-Cyclohexyl-1-{[2-cinnamoylamino]-4-[(1-aminocarbonyl-2-cyclohexyl)ethylamino]carbonylaminophenyl}piperazine]	18.5
NC(=O)C1CCC(CNC(=O)Nc2ccc(N3CCCN(C(=O)C4CCNCC4)CC3)c(NC(=O)c3cc4ccccc4o3)c2)CC1 (stereo not shown) [Example 16]	36
N=C(N)c1ccc(C(=O)N(Cc2cccc(Oc3ccccc3)c2)C(Cc2ccc(-c3ccccc3)cc2)C(=O)NCC(N)=O)cc1 (stereo not shown) [Example 1, N-[4-Amidinobenzoyl]-N-[3-phenoxybenzyl]-3-(4-biphenyl)-alanyl-glycyl-amide]	22
CC(C)(C)c1ccc(Oc2cccc(CN(C(=O)c3cccc(C(=N)N)c3)C(Cc3ccc(N)cc3)C(=O)NCC(N)=O)c2)cc1 (stereo not shown) [Example 3, N-[3-Amidinobenzoyl]-N-[3-(4-tert-butylphenoxy)benzyl]-4-aminophenylalanyl-glycyl-amide]	45
NC(=O)C(CCc1ccccc1)NC(=O)Nc1ccc(N2CCN(C3CCCCC3)CC2)c(NC(=O)/C=C/c2ccccc2)c1 (stereo not shown) [Example 10, 4-Cyclohexyl-1-{[2-cinnamoylamino]-4-[(1-aminocarbonyl-3-phenyl)propylamino]carbonylaminophenyl}piperazine]	15.5
NC(=O)C(Cc1ccc2ccccc2c1)NC(=O)Nc1ccc(N2CCN(C3CCCCC3)CC2)c(NC(=O)CCCc2ccccc2)c1 (stereo not shown) [Example 8, 4-Cyclohexyl-1-{[2-(4-phenylbutanoyl)amino]-4-[1-aminocarbonyl-2-(2-naphthyl)ethylamino]carbonylaminophenyl}piperazine]	8.5
